This is an account of results in US20240018121A1, “NOVEL HETEROAROMATIC COMPOUNDS EXHIBITING ANTIFUNGAL ACTIVITY AND THEIR METHOD OF USE” (FOX CHASE CHEMCIAL DIVERSITY CENTER, INC., priority 2020, published 2024).

The structures appear in SMILES notation. ≈ marks a conversion by molar mass, not a printed value. Counter-ions that a name gives are not always drawn. Like-named read-outs stand apart in the source and are kept apart here.

Common to all, as to type: cell-based
Assay [1] has as its system Aspergillus flavus AFL1 (ATCC MYA-3631). Nature of the assay: Fungal MIC Protocol, Aspergillus flavus. Particulars: for MIC: Aspergillus flavus, read-out: MIC Aspergillus flavus 3631. As for the experimental part:
(§1) Fungal MIC Protocol: RPMI/MOPS media (Roswell Park Memorial Institute/3-morpholinopropane-1-sulfonic acid media) is prepared by dissolving 8.4 grams RPMI […] (Sigma cat #R1383), 34.52 grams MOPS buffer (Sigma cat #M3.183) and 2 […] glucose in 900 mL deionized water. The pH is adjusted to 7.0 with NaOH and filter sterilized. 0.1 mL, of a stock spore suspension (or loop from frozen stock) is inoculated to a 75 mL tissue culture flask (Falcon cat #353136) containing 50 mL of Potato Dextrose Agar (PDA, 24 grams PD broth (Fisher cat #DF 0549179), 20 grams agar (Fisher cat #BP 1423500) per liter water). Aspergillus and Fusarium strains are grown at 35° C. and Mucor strains are grown at room temperature for 3-5 days. Spores are harvested by flooding the flask with 5 mL phosphate buffered saline (PBS) pH 7.4+0.1% Tween-20 and several glass beads (Fisher cat #S800243) are added to aid in agitation. The supernatant is removed and the OD530 of a 1:100 dilution is measured. Spores are diluted in RPMI/MOPS to a final OD530 of 0.002 for Aspergillus and an OD530 of 0.005 for Fusarium and Mucor. The final concentration of spores is approximately 2×10^4 cfu/mL. Test compound(s) are diluted to 200 ug/mL in RPMI/MOPS ([…]). Ten (10) serial dilutions are prepared with RPMI/MOPS in a 96-well round bottom plate (Fisher cat #353136). For Mucor strains a sterile flat-bottom 96-well plate is used. 50 μl of compound dilutions in duplicate are added to a sterile 96-well round bottom plate. 50 ul of diluted spores are added to the compound-containing plates. Control wells include 1) compound but no cells and 2) spores but no compound. Mix the plates gently by hand, place in ziplock bags and
(§2) incubate at 35° C. for 48 hours. […]

Assay [2] has as its system Aspergillus fumigatus T33439 (ATCC MYA-3626). Nature of the assay: Fungal MIC Protocol, Aspergillus fumigatus. Particulars: for MIC: Aspergillus fumigatus, read-out: MIC Aspergillus fumigatus 3626. As for the experimental part: as §1, §2
The next assay relates to Candida albicans GDH2346. In words: Candida Minimal Inhibitory Concentration (MIC). To be noted: 50% growth inhibition at 48 hours; for MIC50: Candida albicans, GDH2346, read-out: MIC-50 Candida albicans GDH2346. As for the experimental part: Candida Minimal Inhibitory Concentration (MIC): RPMI/MOPS media is prepared by dissolving 8.4 g RPMI 1640, 34.52 g MOPS buffer and 2 g glucose in 900 mL water. The pH is adjusted to 7.0 with NaOH. The total volume is brought to 1 L and the resulting solution is filter sterilized. The Candida stock is streaked on a Yeast extract Peptone Dextrose (YPD) agar plate and grown at 35° C. for isolation of single colonies. Compounds of the disclosure are diluted to 200 μg/mL in RPMI/MOPS (4.8 ul of 10 mg/mL DMSO stock in 240 ul media). Ten (10) 1:2 serial dilutions are prepared in RPMI/MOPS in a 96-well round bottom plate. Fifty (50) μl of compound dilutions are transferred in duplicate to a sterile tissue culture-treated 96-well flat-bottom, black-sided polypropylene plate. A single colony of Candida from the YPD plate is re-suspended in 5 mL phosphate buffered saline (BS) and optical density (OD) at 600 nm is measured. The suspension is adjusted to OD=1.0 and a 1:1000 dilution is prepared in RPMI/MOPS. Fifty (50) ul aliquots of the diluted yeast are added to the plates containing 50 μL of compound to all wells except 12E-H. Control wells include: 12 A-D cells, no compound and 12 E-H no cells, no compound. The plates are mixed gently by hand and placed in Ziplok bags in a 35° C. incubator. The OD600 is measured at 24 and 48 hours.

The test system of assay [3] is Fusarium falciforme FS1 (ATCC MYA-3636). Nature of the assay: Fungal MIC Protocol, Fusarium falciforme. Particulars: Fusarium falciforme, read-out: MIC Fusarium falciforme 3636. As to the method: as §1, §2
For assay [4], the system named is Fusarium solani (ATCC 58877). In words: Fungal MIC Protocol, Fusarium solani. Particulars: Fusarium solani, read-out: MIC Fusarium solani 58877. As to the method: as §1, §2
Assay [5] has as its system Mucor circinelloides 1463(62) (ATCC 26759). In words: Fungal MIC Protocol, Mucor circinelloides (MIC-50). To be noted: Mucor circinelloides, read-out: MIC-50 Mucorales circinelloides 26579. As for the experimental part:
as §1
(§3) incubate at 35° C. for 48 hours. Score the MIC visually (lowest concentration of compound showing >50% growth inhibition) using an inverted mirror.

Assay [6] has as its system Mucor ramosissimus 057718 (ATCC 90286). Nature of the assay: Fungal MIC Protocol, Mucor ramosissimus (MIC-50). Particulars: Mucor ramosissimus, read-out: MIC-50 Mucorales ramosissimus 90286. As for the experimental part: as §1, §3
Setting [7] is: 100% growth inhibition at 48 hours.

A word on the MIC: it is the smallest concentration in the dilution series that meets the test's criterion for growth inhibition.

For `Cc1cc(C2CCN(C(=N)N)CC2)ccc1-c1nnc(-c2ccc(C3CCN(C(=N)N)CC3)cc2)o1` [Example 53, 4-(4-(5-(4-(1-Carbamimidoylpiperidin-4-yl)-2-methylphenyl)-1,3,4-oxadiazol-2-yl)phenyl)piperidine-1-carboximidamide], the minimum inhibitory concentration (MIC) in assay [1] (setting [7]) was found to be 6.25 µg/mL (≈ 12.8 µM); in assay [2] (setting [7]) it was 25 µg/mL (≈ 51.4 µM). The MIC50 in the assay on Candida albicans GDH2346 was found to be 1.56 µg/mL (≈ 3.21 µM).

Consider `N=C(N)N1CCN(c2ccc(-c3nnc(-c4ccc(N5CCN(C(=N)N)CC5)cc4)o3)cc2)CC1` [Example 51, 4,4′-(4,4′-(1,3,4-Oxadiazole-2,5-diyl)bis(4,1-phenylene)) dipiperazine-1-carboximidamide], for which the MIC in assay [1] (setting [7]) was 6.25 µg/mL (≈ 13.2 µM); in assay [2] (setting [7]), 0.78 µg/mL (≈ 1.64 µM). Further, in the assay on Candida albicans GDH2346, the MIC50 was 3.13 µg/mL (≈ 6.6 µM).

In the case of `CNc1cc(C2=CCN(C(=N)N)CC2)ccc1-c1nnc(-c2ccc(C3=CCN(C(=N)N)CC3)cc2F)o1` [Example 47a, 4-(4-(5-(4-(1-Carbamimidoyl-1,2,3,6-tetrahydropyridin-4-yl)-2-(methylamino)phenyl)-1,3,4-oxadiazol-2-yl)-3-fluorophenyl)-5,6-dihydropyridine-1(2H)-carboximidamide], the minimal inhibitory concentration (MIC) turned out to be 0.39 µg/mL (≈ 0.756 µM) in assay [1] (setting [7]) and 1.56 µg/mL (≈ 3.03 µM) in assay [2] (setting [7]). The MIC50 in the assay with Candida albicans GDH2346 is 0.78 µg/mL (≈ 1.51 µM).

With `Cc1cc(-c2nnc(-c3ccc(N4CCN(C(=N)N)CC4)cc3)o2)ccc1N1CCN(C(=N)N)CC1` [Example 60, 4-(4-{5-[4-(4-Carbamimidoylpiperazin-1-yl)-3-methylphenyl]-1,3,4-oxadiazol-2-yl}phenyl)piperazine-1-carboximidamide], the MIC in assay [1] (setting [7]) and in assay [2] (setting [7]) was 25 µg/mL (≈ 51.2 µM) each time. In the assay with Candida albicans GDH2346, the MIC50 was 1.56 µg/mL (≈ 3.19 µM).

Take `Cc1cc(N2CCN(C(=N)N)CC2)ccc1-c1nnc(-c2ccc(N3CCN(C(=N)N)CC3)cc2)o1` [Example 61, 4-(4-{5-[4-(4-Carbamimidoylpiperazin-1-yl)-2-methylphenyl]-1,3,4-oxadiazol-2-yl}phenyl)piperazine-1-carboximidamide]: the minimal inhibitory concentration (MIC) in assay [1] (setting [7]) amounted to 3.13 µg/mL (≈ 6.41 µM); in assay [2] (setting [7]), 0.78 µg/mL (≈ 1.6 µM). In addition, in the assay on Candida albicans GDH2346, the MIC50 amounted to 1.56 µg/mL (≈ 3.19 µM).

For `Cn1nc(-c2ccc(N3CCN(C(=N)N)CC3)cc2)cc1-c1ccc(N2CCN(C(=N)N)CC2)cc1` [Example 55, 4,4′-(4,4′-(1-Methyl-1H-pyrazole-3,5-diyl)bis(4,1-phenylene)) dipiperazine-1-carboximidamide], the values for the MIC in assay [1] (setting [7]) and in assay [2] (setting [7]) were 3.13 µg/mL (≈ 6.43 µM) and 0.78 µg/mL (≈ 1.6 µM), respectively. Further, the MIC50 in the assay with Candida albicans GDH2346 worked out at 1.56 µg/mL (≈ 3.21 µM).

Turning to `N=C(N)N1CC=C(c2ccc(-c3nnc(-c4ccc(C5=CCN(C(=N)N)CC5)cc4C(F)(F)F)o3)cc2)CC1` [Example 46, 4-(4-(5-(4-(1-Carbamimidoyl-1,2,3,6-tetrahydropyridin-4-yl)-2-(trifluoromethyl)phenyl)-1,3,4-oxadiazol-2-yl)phenyl)-5,6-dihydropyridine-1(2H)-carboximidamide], the minimal inhibitory concentration (MIC) in assay [1] (setting [7]) and in assay [2] (setting [7]) was 1.56 µg/mL (≈ 2.91 µM) each time. In addition, the MIC50 in the assay with Candida albicans GDH2346 came out at 0.2 µg/mL (≈ 0.373 µM).

Regarding `CNc1cc(C2=CCN(C(=N)N)CC2)ccc1-c1nnc(-c2ccc(C3=CCN(C(=N)N)CC3)cc2NC)o1` [Example 47b, 4,4′-(4,4′-(1,3,4-Oxadiazole-2,5-diyl)bis(3-(methylamino)-4,1-phenylene))bis(5,6-dihydropyridine-1(2H)-carboximidamide)], the “MIC Aspergillus flavus 3631” value in assay [1] (setting [7]) was 0.78 µg·mL. Besides, the “MIC Aspergillus fumigatus 3626” value in assay [2] (setting [7]) is 0.78 µg·mL. Also, the “MIC-50 Candida albicans GDH2346” value in the assay with Candida albicans GDH2346 amounted to 1.56 µg/mL (≈ 2.96 µM).

For `N=C(N)N1CC=C(c2ccc(-c3nnc(-c4ccc(C5=CCN(C(=N)N)CC5)cc4F)n3CCOCCO)c(F)c2)CC1` [Example 77, 4-(4-{5-[4-(1-carbamimidoyl-1,2,3,6-tetrahydropyridin-4-yl)-2-fluorophenyl]-4-[2-(2-hydroxyethoxy)ethyl]-4H-1,2,4-triazol-3-yl}-3-fluorophenyl)-1,2,3,6-tetrahydropyridine-1-carboximidamide trifluoroacetate], the minimum inhibitory concentration (MIC) in assay [1] (48 h) was determined as 0.78 µg/mL; in assay [2] (48 h), 0.2 µg/mL; in assay [3] (48 h) it was 0.2 µg/mL; in assay [4] (ATCC58877, 48 h) it was 0.2 µg/mL. The MIC50 worked out at 6.25 µg/mL in assay [5] (ATCC26759, 48 h) and 25 µg/mL in assay [6] (ATCC90286, 48 h).

Turning to `COCCOCCn1c(-c2ccc(C3=CCN(C(=N)N)CC3)cc2F)nnc1-c1ccc(C2=CCN(C(=N)N)CC2)cc1F` [Example 81, 4-(4-{5-[4-(1-carbamimidoyl-1,2,3,6-tetrahydropyridin-4-yl)-2-fluorophenyl]-4-[2-(2-methoxyethoxy)ethyl]-4H-1,2,4-triazol-3-yl}-3-fluorophenyl)-1,2,3,6-tetrahydropyridine-1-carboximidamide], the minimal inhibitory concentration (MIC) in assay [1] (setting [7]) was 0.78 µg/mL (≈ 1.29 µM); in assay [2] (setting [7]) it was 0.39 µg/mL (≈ 0.644 µM); in assay [3] (setting [7]) it was 0.1 µg/mL (≈ 0.165 µM); in assay [4] (ATCC58877, 100% growth inhibition at 48 hours), 0.1 µg/mL (≈ 0.165 µM). Besides, the MIC50 is 1.56 µg/mL (≈ 2.58 µM) in assay [5] (ATCC26759, 50% growth inhibition at 48 hours) and 6.25 µg/mL (≈ 10.3 µM) in assay [6] (ATCC90286, 50% growth inhibition at 48 hours).

Regarding `CC(O)Cn1c(-c2ccc(C3=CCN(C(=N)N)CC3)cc2F)nnc1-c1ccc(C2=CCN(C(=N)N)CC2)cc1F` (stereo not drawn) [Example 66, 4-(4-{5-[4-(1-carbamimidoyl-1,2,3,6-tetrahydropyridine-4-yl)-2-fluorophenyl]-4-(2-hydroxypropyl)-4H-1,2,4-triazol-3-yl}-3-fluorophenyl)-1,2,3,6-tetrahydropyridine-1-carboximidamide trifluoroacetate], the MIC came out at 0.39 µg/mL in assay [1] (48 h); 0.2 µg/mL in assay [2] (48 h); 0.1 µg/mL in assay [3] (48 h); 0.2 µg/mL in assay [4] (ATCC58877, 48 h). The MIC50 in assay [5] (ATCC26759, 48 h) turned out to be 1.56 µg/mL; in assay [6] (ATCC90286, 48 h), 6.25 µg/mL.

`N=C(N)N1CC=C(c2ccc(-c3nnc(-c4ccc(C5=CCN(C(=N)N)CC5)cc4F)n3C(CO)CO)c(F)c2)CC1` [Example 71, 4-(4-{5-[4-(1-carbamimidoyl-1,2,3,6-tetrahydropyridin-4-yl)-2-fluorophenyl]-4-(1,3-dihydroxypropan-2-yl}-4H-1,2,4-triazol-3-yl)-3-fluorophenyl)-1,2,3,6-tetrahydropyridine-1-carboximidamide hydrochloride]: the minimum inhibitory concentration (MIC) in assay [1] (48 h) came to 3.13 µg/mL; in assay [2] (48 h), 1.56 µg/mL; in assay [3] (48 h), 1.56 µg/mL; in assay [4] (ATCC58877, 48 h), 0.39 µg/mL. Further, the MIC50 in assay [5] (ATCC26759, 48 h) was 25 µg/mL; in assay [6] (ATCC90286, 48 h) it was 25 µg/mL.
